Measurements: patent US20220017877A1, “BILIRUBIN OXIDASE ACTIVITY IMPROVING METHOD, AND BILIRUBIN OXIDASE PRODUCT” (OZEKI CORPORATION, priority 2018, published 2022)
Like-named read-outs stand apart in the source and are kept apart here.

Target: T1, recombinant BOD (bilirubin oxidase) derived from Myrothecium verrucaria MT-1 (Albifimbria verrucaria, UniProt Q12737)
T1 construct: made in house; host or cells: Aspergillus sp
T1 sequence (Q12737 39-572): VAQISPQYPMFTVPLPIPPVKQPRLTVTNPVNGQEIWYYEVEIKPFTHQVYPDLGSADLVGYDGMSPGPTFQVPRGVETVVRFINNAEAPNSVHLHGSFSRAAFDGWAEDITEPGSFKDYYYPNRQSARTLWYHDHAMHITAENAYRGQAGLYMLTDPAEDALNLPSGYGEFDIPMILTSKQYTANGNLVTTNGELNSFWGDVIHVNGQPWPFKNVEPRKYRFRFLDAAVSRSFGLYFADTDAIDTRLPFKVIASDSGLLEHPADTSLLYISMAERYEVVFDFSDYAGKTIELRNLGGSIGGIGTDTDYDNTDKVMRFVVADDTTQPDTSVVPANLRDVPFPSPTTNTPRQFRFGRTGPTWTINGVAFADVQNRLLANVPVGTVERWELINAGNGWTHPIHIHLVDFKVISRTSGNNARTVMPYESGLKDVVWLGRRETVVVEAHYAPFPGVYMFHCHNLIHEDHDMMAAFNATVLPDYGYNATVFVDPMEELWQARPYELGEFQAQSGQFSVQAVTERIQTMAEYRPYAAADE
Assay: BOD activity after leaving the BOD solution with an activity improving agent at 5 to 50° C. in a deoxygenated atmosphere (Test Example 2)
Assay type: biochemical
Conditions: for activity at 4000 µM / increase of BOD activity as compared with that prior to leaving: 4 mM
Text: In Test Example 1, a BOD gene derived from a Myrothecium verrucaria MT-1 (GenBank accession number: D12579.1) was introduced into an Aspergillus sp., and then a recombinant BOD (hereinafter, also referred to simply as “BOD”) expressed in the Aspergillus sp. was purified by using a well-known technique and then used as the BOD. The BOD gene derived from the Myrothecium verrucaria MT-1 was codon-optimized in accordance with a gene sequence of the Aspergillus sp., and then introduced into the Aspergillus sp. Further, the BOD thus purified was dissolved in a 50 mM glycine-KOH (pH 8.5) buffer so that the concentration of the BOD became 1.0 mg/mL. Then, a resultant solution was used as a BOD enzyme solution.
The enzymatic activity of the BOD was measured as follows. To 1780 μL of a 50 mM potassium phosphate buffer (pH 6.5), 200 μL of a 20 mM ABTS substrate solution was added, so that a mixed solution (1980 μL) was prepared. This mixed solution was incubated for 1 min at 37° C. Thereafter, 20 μL of a solution containing the BOD (specifically, a BOD solution for evaluation, which will be described later) was added to the mixed solution, and a resultant mixed solution (2 mL) was incubated at 37° C. While the mixed solution was incubated, the absorbance of the mixed solution at a wavelength of 436 nm was measured immediately after that addition of the BOD solution for evaluation (at 0 seconds) and thereafter every 20 seconds. On the basis of (i) the absorbance of the mixed solution at a wavelength of 436 nm immediately after the addition of the BOD solution for evaluation and (ii) the absorbance of the mixed solution at a wavelength of 436 nm after a lapse of 1 minute from the addition of the BOD solution for evaluation, calculation was carried out for obtaining an increase rate per minute of the absorbance of the mixed solution at a wavelength of 436 nm after the addition of the BOD solution for evaluation. The BOD activity (unit) in the BOD solution for evaluation was calculated from the increase rate. In the present specification, the amount of enzyme for oxidizing 1 μmol of ABTS per minute was defined as one unit.
The following describes a specific test method in Test Example 2. A BOD solution containing an activity improving agent was prepared as in Test Example 1. Further, another BOD solution which contained no activity improving agent (to which no activity improving agent was added) was prepared and used as a control. In Test Example 2, L-ascorbic acid or uric acid was used as the activity improving agent. Moreover, the final concentration of L-ascorbic acid in the BOD solution was set to 4 mM, and the final concentration of uric acid in the BOD solution was set to 20 mM. In addition, in Test Example 2, the concentration of the BOD in the BOD enzyme solution was set to 3.0 mg/mL.
Each of the above BOD solutions and a deoxygenating agent (Anaero Pack-Kenki manufactured by Mitsubishi Gas Chemical Company, Inc.) were included in one container (pouch) which was not permeable to oxygen. Then, the container was sealed, so that a BOD container was prepared. The BOD container was left at room temperature (approximately 25° C.) for approximately 2 hours, so that an inner atmosphere of the container became the deoxygenated atmosphere. Thereafter, the BOD container was left in a thermostatic chamber set at 5° C., 10° C., 20° C., 30° C., 40° C., or 50° C. for a certain period of time. Here, (a) the BOD solution without any additive was left for 1 day, 3 days, 7 days, 14 days, or 29 days, (b) the BOD solution containing L-ascorbic acid was left for 1 day, 3 days, 7 days, or 14 days, and (c) the BOD solution containing uric acid was left for 1 day, 3 days, 8 days, 14 days, or 28 days. Three samples (BOD containers) were prepared for each condition. After leaving the BOD containers under the above conditions, the BOD solution was collected from each of the BOD containers and used as a BOD solution for evaluation. […]

## O=C1O[C@H]([C@@H](O)CO)C(O)=C1O [L-ascorbic acid]
5° C., Day 0, read-out: Activity (%) Day 0
  activity at 4000 µM: 100%
5° C., Day 1, read-out: Activity (%) Day 1
  activity at 4000 µM: 92%
5° C., Day 3, read-out: Activity (%) Day 3
  activity at 4000 µM: 95%
5° C., Day 7, read-out: Activity (%) Day 7
  activity at 4000 µM: 107%
5° C., Day 14, read-out: Activity (%) Day 14
  activity at 4000 µM: 55%
10° C., Day 0, read-out: Activity (%) Day 0
  activity at 4000 µM: 100%
10° C., Day 1, read-out: Activity (%) Day 1
  activity at 4000 µM: 101%
10° C., Day 3, read-out: Activity (%) Day 3
  activity at 4000 µM: 120%
10° C., Day 7, read-out: Activity (%) Day 7
  activity at 4000 µM: 146%
10° C., Day 14, read-out: Activity (%) Day 14
  activity at 4000 µM: 147%
20° C., Day 0, read-out: Activity (%) Day 0
  activity at 4000 µM: 100%
20° C., Day 1, read-out: Activity (%) Day 1
  activity at 4000 µM: 115%
20° C., Day 3, read-out: Activity (%) Day 3
  activity at 4000 µM: 160%
20° C., Day 7, read-out: Activity (%) Day 7
  activity at 4000 µM: 195%
20° C., Day 14, read-out: Activity (%) Day 14
  activity at 4000 µM: 188%
30° C., Day 0, read-out: Activity (%) Day 0
  activity at 4000 µM: 100%
30° C., Day 1, read-out: Activity (%) Day 1
  activity at 4000 µM: 164%
30° C., Day 3, read-out: Activity (%) Day 3
  activity at 4000 µM: 205%
30° C., Day 7, read-out: Activity (%) Day 7
  activity at 4000 µM: 204%
30° C., Day 14, read-out: Activity (%) Day 14
  activity at 4000 µM: 229%
40° C., Day 0, read-out: Activity (%) Day 0
  activity at 4000 µM: 100%
40° C., Day 1, read-out: Activity (%) Day 1
  activity at 4000 µM: 212%
40° C., Day 3, read-out: Activity (%) Day 3
  activity at 4000 µM: 216%
40° C., Day 7, read-out: Activity (%) Day 7
  activity at 4000 µM: 215%
40° C., Day 14, read-out: Activity (%) Day 14
  activity at 4000 µM: 237%
50° C., Day 0, read-out: Activity (%) Day 0
  activity at 4000 µM: 100%
50° C., Day 1, read-out: Activity (%) Day 1
  activity at 4000 µM: 220%
50° C., Day 3, read-out: Activity (%) Day 3
  activity at 4000 µM: 211%
50° C., Day 7, read-out: Activity (%) Day 7
  activity at 4000 µM: 212%
50° C., Day 14, read-out: Activity (%) Day 14
  activity at 4000 µM: 238%
One day at not lower than 40° C.
  increase of BOD activity as compared with that prior to leaving: ≥ 2 times
Seven days at 20° C.
  increase of BOD activity as compared with that prior to leaving: ≥ 2 times
Three days at 30° C.
  increase of BOD activity as compared with that prior to leaving: ≥ 2 times
BOD containers left at 5° C.
  BOD activity increase at 5° C. compared with not lower than 10° C.: not found to be increased to an extend that was achieved
